The results in this text go back to PubChem BioAssay (NCI).

Molecules are shown by their SMILES.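 Cultured in 96-well plates, cells were exposed to test compound for 48 hours across five concentrations. TGI marks complete inhibition of growth.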

Some test systems named below: PC-3 prostate; NCI/ADR-RES ovarian; UACC-257 melanoma; SR leukemia; CAKI-1 renal; BT-549 breast; SF-539 CNS; IGROV1 ovarian; OVCAR-8 ovarian; K-562 leukemia.
Holding throughout (test): inhibition of tumour cell growth, NCI panel, 48 h

With `CCOc1cc2c(cc1O)CC[C@@H]1[C@@H]2CC[C@]2(C)C(OS(=O)OC3CC[C@@H]4[C@H]5CCc6cc(O)c(OCC)cc6[C@@H]5CC[C@@]34C)CC[C@@H]12` (stereo not given in full), the TGI is 24.9 µM in the assay on PC-3 prostate; 23.7 µM in the assay with NCI/ADR-RES ovarian; > 42.8 µM in the assay with UACC-257 melanoma; > 44 µM in the assay with SR leukemia; 26 µM in the assay with CAKI-1 renal; 13.6 µM in the assay on BT-549 breast. For the same compound, the TGI with SF-539 CNS is 1.85 µM; with IGROV1 ovarian, 25.8 µM; in the assay on OVCAR-8 ovarian, 10 µM; in the assay on K-562 leukemia it was > 55.6 µM.
Take `N#CCOc1cccc(C2(N3CC=CCC3)CCCCC2)c1`: the TGI with PC-3 prostate, with NCI/ADR-RES ovarian, in the assay on UACC-257 melanoma, in the assay with SR leukemia, in the assay with CAKI-1 renal and with BT-549 breast was > 100 µM each time. For the same compound, the TGI in the assay with SF-539 CNS, in the assay on IGROV1 ovarian, with OVCAR-8 ovarian and in the assay with K-562 leukemia was > 100 µM in each case.
For the compound `Clc1cc(OCC23CC4CC(CC(C4)C2)C3)nc(OCC23CC4CC(CC(C4)C2)C3)n1`, the TGI in the assay on PC-3 prostate, in the assay with NCI/ADR-RES ovarian, in the assay with UACC-257 melanoma, in the assay on SR leukemia, with CAKI-1 renal and with BT-549 breast was > 100 µM in each case. Further, the TGI with SF-539 CNS, in the assay on IGROV1 ovarian, in the assay on OVCAR-8 ovarian and in the assay with K-562 leukemia was > 100 µM each time.
Consider `COC(=O)c1c(O)ccc2c1c1c(n2Cc2ccccc2OC)C(=O)c2ccccc2C1`, for which the TGI was 78.8 µM in the assay on PC-3 prostate; > 100 µM with NCI/ADR-RES ovarian; > 100 µM with UACC-257 melanoma; > 100 µM with SR leukemia; > 100 µM in the assay on CAKI-1 renal; > 100 µM in the assay on BT-549 breast. The TGI in the assay with SF-539 CNS, in the assay with IGROV1 ovarian, in the assay with OVCAR-8 ovarian and with K-562 leukemia was > 100 µM throughout.
On to `Cc1[nH]c(=O)nc2nc3ccc(Cl)cc3c(NC(C)(CO)CO)c12`, for which the TGI in the assay on PC-3 prostate, with NCI/ADR-RES ovarian, in the assay on UACC-257 melanoma, in the assay with SR leukemia, with CAKI-1 renal and in the assay with BT-549 breast was > 100 µM throughout. Moreover, the TGI with SF-539 CNS, with IGROV1 ovarian, in the assay with OVCAR-8 ovarian and with K-562 leukemia was > 100 µM throughout.
As to `NC(=O)C[C@H](NC(=O)C1(NC(=O)[C@H](Cc2ccc(CP(=O)(O)O)cc2)NC(=O)C(=O)O)CCCCC1)C(=O)NCCCc1cccc2ccccc12`, the TGI with PC-3 prostate was > 10 µM; with NCI/ADR-RES ovarian it was > 10 µM; in the assay on UACC-257 melanoma, > 10 µM; in the assay with SR leukemia, 7.86 µM; in the assay on CAKI-1 renal it was > 10 µM; with BT-549 breast, > 10 µM. In addition, the TGI with SF-539 CNS, in the assay with IGROV1 ovarian, with OVCAR-8 ovarian and in the assay with K-562 leukemia was > 10 µM throughout.
Take `Cc1nc2c(Cl)cc(Cl)cc2c(Cl)c1CCCl`: the TGI with PC-3 prostate, with NCI/ADR-RES ovarian, with UACC-257 melanoma, with SR leukemia, with CAKI-1 renal and in the assay with BT-549 breast was > 100 µM each time. Moreover, the TGI in the assay with SF-539 CNS, with IGROV1 ovarian, in the assay with OVCAR-8 ovarian and with K-562 leukemia was > 100 µM throughout.
Regarding `CCCCC1(N=[N+]=[N-])C(=O)C2C=CC=C3c4ccccc4N(C1=O)C32` (stereo not given), the TGI in the assay with PC-3 prostate is > 31.6 µM; in the assay with NCI/ADR-RES ovarian, > 31.6 µM; with UACC-257 melanoma it was 30.9 µM; with SR leukemia, > 10 µM; with CAKI-1 renal, > 31.6 µM; in the assay on BT-549 breast it was > 31.6 µM. Further, the TGI in the assay on SF-539 CNS, with IGROV1 ovarian, with OVCAR-8 ovarian and in the assay on K-562 leukemia was > 31.6 µM each time.
As for `COc1cccc2c1-c1c(OC)cccc1SS2`, the TGI in the assay on PC-3 prostate is > 100 µM; in the assay on NCI/ADR-RES ovarian, > 100 µM; in the assay with UACC-257 melanoma, 35.9 µM; with SR leukemia, 46.4 µM; in the assay with CAKI-1 renal, > 100 µM; in the assay on BT-549 breast it was 86.5 µM. The TGI in the assay with SF-539 CNS was 33.4 µM; in the assay on IGROV1 ovarian it was 41.6 µM; in the assay on OVCAR-8 ovarian, 72.6 µM; with K-562 leukemia it was > 100 µM.
`COc1ccc(N2C(N)=C(C#N)C(C#N)(C#N)C2c2cccc([N+](=O)[O-])c2)cc1` (stereo not given): the TGI in the assay on PC-3 prostate is 32.4 µM; with NCI/ADR-RES ovarian, 43.2 µM; with UACC-257 melanoma, 27.6 µM; in the assay with SR leukemia, > 66 µM; in the assay with CAKI-1 renal it was 23.4 µM; in the assay on BT-549 breast it was 32.3 µM. The TGI in the assay on SF-539 CNS was found to be 28.9 µM; in the assay on IGROV1 ovarian it was 29.7 µM; in the assay with OVCAR-8 ovarian it was 32.8 µM; with K-562 leukemia, 14.7 µM.
For the compound `O=[N+]([O-])c1ccc2nc(/C=C(\O)c3ccccc3)c(/C=C(\O)c3ccccc3)nc2c1`, the TGI with PC-3 prostate is > 100 µM; in the assay on NCI/ADR-RES ovarian, > 89 µM; in the assay on UACC-257 melanoma, > 100 µM; in the assay on SR leukemia it was > 94.9 µM; in the assay on CAKI-1 renal, > 79 µM; in the assay with BT-549 breast, 62.1 µM. Besides, the TGI was 22.8 µM in the assay on SF-539 CNS, > 56.4 µM with IGROV1 ovarian, 42 µM in the assay on OVCAR-8 ovarian and > 100 µM in the assay on K-562 leukemia.
As to `CCCCCCCCCCCCCCCCCCOc1ccc(/C=C/C2=[N+](CCCl)CCO2)cc1`, the TGI in the assay with PC-3 prostate, in the assay on NCI/ADR-RES ovarian, in the assay on UACC-257 melanoma, in the assay with SR leukemia, with CAKI-1 renal and in the assay on BT-549 breast was > 100 µM throughout. The TGI with SF-539 CNS, in the assay with IGROV1 ovarian, with OVCAR-8 ovarian and in the assay with K-562 leukemia was > 100 µM in each case.
Consider `Cc1oncc1NC1=CC(=O)C(=O)c2ccccc21`, for which the TGI in the assay on PC-3 prostate was 10 µM; in the assay with NCI/ADR-RES ovarian, > 100 µM; with UACC-257 melanoma, 9.34 µM; with SR leukemia it was 34.6 µM; with CAKI-1 renal it was 22.6 µM; in the assay on BT-549 breast it was 25 µM. The TGI with SF-539 CNS amounted to 15.1 µM; in the assay on IGROV1 ovarian it was 11.8 µM; with OVCAR-8 ovarian it was 11.9 µM; in the assay with K-562 leukemia, 27 µM.
Take `CO[C@H]1C[C@H](n2cc(C)c(=O)[nH]c2=O)O[C@@H]1CO`: the TGI in the assay with PC-3 prostate, with NCI/ADR-RES ovarian, with UACC-257 melanoma, in the assay on SR leukemia, in the assay with CAKI-1 renal and in the assay on BT-549 breast was > 100 µM each time. For the same compound, the TGI in the assay with SF-539 CNS, in the assay on IGROV1 ovarian, in the assay with OVCAR-8 ovarian and in the assay on K-562 leukemia was > 100 µM throughout.
As to `O=C(Cn1c(=O)oc2ccc(C(=O)c3ccccc3Cl)cc21)c1ccc([N+](=O)[O-])cc1`, the TGI in the assay with PC-3 prostate was > 100 µM; in the assay with NCI/ADR-RES ovarian it was > 100 µM; with UACC-257 melanoma, 90.3 µM; in the assay on SR leukemia it was > 100 µM; in the assay on CAKI-1 renal, > 100 µM; in the assay with BT-549 breast, 75 µM. Also, the TGI in the assay on SF-539 CNS was 65.9 µM; with IGROV1 ovarian it was > 100 µM; in the assay with OVCAR-8 ovarian, > 100 µM; in the assay on K-562 leukemia, 83 µM.
`COP(=O)(OC)c1ccc(NCc2cc(O)ccc2O)cc1`: the TGI is > 100 µM in the assay on PC-3 prostate; > 84.5 µM in the assay with NCI/ADR-RES ovarian; > 56.1 µM with UACC-257 melanoma; > 83.4 µM in the assay on SR leukemia; 34.6 µM in the assay with CAKI-1 renal; 36.9 µM in the assay on BT-549 breast. For the same compound, the TGI in the assay with SF-539 CNS is 46.1 µM; in the assay on IGROV1 ovarian, > 67.1 µM; with OVCAR-8 ovarian it was > 71.2 µM; in the assay with K-562 leukemia, > 96.8 µM.
`Cc1cc2c(cc1-c1cc3c(cc1C)C(C(C)C)=C(O)C(=O)/C3=C\Nc1c(C)n(C)n(-c3ccccc3)c1=O)/C(=C/Nc1c(C)n(C)n(-c3ccccc3)c1=O)C(=O)C(O)=C2C(C)C`: the TGI with PC-3 prostate, in the assay on NCI/ADR-RES ovarian, in the assay with UACC-257 melanoma, with SR leukemia, with CAKI-1 renal and in the assay on BT-549 breast was > 100 µM each time. For the same compound, the TGI with SF-539 CNS, in the assay with IGROV1 ovarian, with OVCAR-8 ovarian and with K-562 leukemia was > 100 µM each time.
In the case of `COc1ccc(CCNC(=O)CCCCCO)cc1OC`, the TGI in the assay with PC-3 prostate, with NCI/ADR-RES ovarian, in the assay on UACC-257 melanoma, in the assay on SR leukemia, with CAKI-1 renal and with BT-549 breast was > 100 µM throughout. Moreover, the TGI in the assay on SF-539 CNS, in the assay with IGROV1 ovarian, in the assay with OVCAR-8 ovarian and in the assay with K-562 leukemia was > 100 µM in each case.
Consider `CN(C)CCNC(=O)c1cccc2[nH]c(-c3ccncc3)nc12`, for which the TGI in the assay on PC-3 prostate was > 24.3 µM; in the assay on NCI/ADR-RES ovarian, > 100 µM; with UACC-257 melanoma, 3.51 µM; in the assay on SR leukemia, > 100 µM; with CAKI-1 renal it was 5.95 µM; in the assay on BT-549 breast, 34.8 µM. Also, the TGI in the assay on SF-539 CNS was 6.82 µM; in the assay on IGROV1 ovarian, > 56.4 µM; with OVCAR-8 ovarian, > 40.2 µM; in the assay on K-562 leukemia, > 100 µM.
For the compound `NC(=O)c1ncn2c(=O)n(CCl)nnc12`, the TGI in the assay with PC-3 prostate, with NCI/ADR-RES ovarian, in the assay on UACC-257 melanoma, with SR leukemia, in the assay on CAKI-1 renal and with BT-549 breast was > 100 µM in each case. Moreover, the TGI in the assay on SF-539 CNS, in the assay with IGROV1 ovarian, in the assay with OVCAR-8 ovarian and with K-562 leukemia was > 100 µM in each case.
Take `CCCCNC(=S)c1ccc(OC(=O)Nc2ccc(Cl)cc2)cc1`: the TGI in the assay with PC-3 prostate, in the assay on NCI/ADR-RES ovarian, in the assay with UACC-257 melanoma, in the assay with SR leukemia, in the assay with CAKI-1 renal and with BT-549 breast was > 100 µM throughout. Besides, the TGI is > 100 µM with SF-539 CNS, 70.4 µM in the assay on IGROV1 ovarian, > 100 µM in the assay on OVCAR-8 ovarian and > 100 µM in the assay with K-562 leukemia.
Consider `S=c1nc2sc3c(c2c(Nc2ccc(Br)cc2)[nH]1)CCN(N1CCc2c(sc4nc(=S)[nH]c(Nc5ccc(Br)cc5)c24)C1)C3`, for which the TGI in the assay with PC-3 prostate, with NCI/ADR-RES ovarian, in the assay on UACC-257 melanoma, with SR leukemia, in the assay with CAKI-1 renal and with BT-549 breast was > 50 µM each time. In addition, the TGI in the assay on SF-539 CNS, in the assay on IGROV1 ovarian, in the assay with OVCAR-8 ovarian and with K-562 leukemia was > 50 µM in each case.
In the case of `CSC1(SC)N2Cc3ccccc3N=C2C1(c1ccccc1)c1ccccc1`, the TGI in the assay on PC-3 prostate was > 100 µM; in the assay on NCI/ADR-RES ovarian, > 67 µM; in the assay with UACC-257 melanoma, > 90.2 µM; with SR leukemia, 9.36 µM; in the assay with CAKI-1 renal it was > 100 µM; in the assay with BT-549 breast it was > 92.6 µM. Moreover, the TGI was 31.6 µM in the assay on SF-539 CNS, > 100 µM in the assay on IGROV1 ovarian, > 79.6 µM with OVCAR-8 ovarian and > 100 µM in the assay with K-562 leukemia.
